Assay results taken from patent publication US9512140B2, “(Thieno[2,3-b][1,5]benzoxazepin-4-yl)piperazin-1-yl compounds as dual activity H1 inverse agonists/5-HT2A antagonists” (priority 2011, dated 2016).
Where a name gives a salt, the structure may show the parent alone.

Tests used:
[1] = molecular target: T1, recombinant H1 receptor (human) (Homo sapiens, UniProt P35367); experiment: H1 competition binding assay ([3H]-Pyrilamine, SPA)
T1 construct: expressed in transfected cells; host or cells: HEK-293 (membranes)
Procedure: [^3H]-Pyrilamine binding experiments are carried out in SPA (scintillation proximity assay) 96-well format. Membranes used in this assay are prepared from HEK-293 cells stably expressing recombinant H1 receptor (human). The incubation is initiated by the addition of a mixture of WGA PVT SPA beads (1 mg/well, Perkin Elmer (MA, USA) RPNQ0001) and 3 μg membranes to assay buffer (67 mM Tris; pH 7.6) containing 3.5 nM [^3H]-Pyrilamine and varying concentrations of the test compound (10 point concentration response curves). Non-specific binding is determined in the presence of 10 μM Triprolidine. Samples are incubated for 4 hr. at room temperature (22° C.) and then read in a Microbeta Trilux.
Curves are evaluated using a 4-parameter logistic nonlinear equation to obtain the concentration of competitor causing 50% inhibition of radioligand binding (IC50). Equilibrium dissociation constants (Ki) are calculated according to the equation Ki=IC50/(1+L/Kd), where L equals the concentration of radioligand used in the experiment and Kd equals the equilibrium dissociation constant of the radioligand for the receptor, determined from standard saturation analysis or homologous competition experiments. Reported values for Ki, where n values are indicated, are shown as geometric mean±the standard error of the mean (SEM), with the number of replicate determinations indicated by n. […]

Dopamine Transporter = Dopamine Transporter (Homo sapiens, UniProt Q01959); experiment: Dopamine transporter binding
Text: Further, the compounds of the invention may be tested in binding assays and functional activity assays by well known methods for other physiologically important receptors such as, but not limited to, the hERO channel, other serotonin receptors (specifically 5-HT1B, 5-HT1D, receptors, lack of agonist activity at 5-HT2B receptors, 5-HT2C, 5-HT5, 5-HT6, and 5-HT7 receptors), dopaminergic receptors (specifically D1, D2, and D3), GABAA receptors, adrenergic receptors and monoamine transporters.

Rats [2] = experiment: Rat sleep studies, coadministration with citalopram; type: in vivo; settings: coadministered with citalopram
Rats [3] = experiment: Sleep and behavioral monitoring in rats (EEG, EMG, motion); type: in vivo
Procedure: The compound of the present invention is tested in rats for its ability to increase the amount of sleep or decrease sleep interruption or both without undesired effects such as inhibition of REM sleep, waking motor impairment, and/or rebound insomnia. Test animals are continuously monitored by electro-encephalograms (EEG), electromyograms (EMG), and motion to measure cumulative nonREM sleep, cumulative total sleep, average sleep bout duration, longest sleep bout duration, rebound insomnia. REM sleep inhibition and locomotor activity intensity during wakefulness. Methods for such studies are known in the art (see for example methods described in Edgar D M, Seidel W F. Modafinil induces wakefulness without intensifying motor activity or subsequent rebound hypersomnolence in the rat. J Pharmacology & Experimental Therapeutics 1997; 283: 757-769; van Gelder R N, Edgar D M, Dement W C. Real-time automated sleep scoring: validation of a microcomputer-based system for mice. Sleep 1991, 14: 48-55; and Gross B A, Walsh C M, Turakhia A A, Booth V, Mashour G A, Poe G R. Open-source logic-based automated sleep scoring software using electrophysiological recordings in rats. J Neurosci Methods. 2009; 184(1):10-8.) Studies are conducted as follows:
Adult, male Wistar rats (approximately 270-300 g at time of surgery) are surgically fitted for chronic recording of EEG, EMG, and motion as follows: Rats are surgically prepared with a cranial implant consisting of four stainless steel screws for EEG recording (two frontal [3.9 mm anterior from bregma, and ±2.0 mm mediolaterally] and two occipital [6.4 mm posterior from bregma, ±5.5 mm mediolaterally]), and with two Teflon-coated stainless steel wires for EMG recording (positioned under the nuchal trapezoid muscles). All leads are soldered to a miniature connector (Microtech, Boothwyn, Pa.) prior to surgery. The implant assembly is affixed to the skull by the combination of the stainless steel EEG recording screws, cyanoacrylate applied between the implant connector and skull, and dental acrylic. Locomotor activity is monitored via a miniature transmitter (Minimitter PDT4000G, Philips Respironics, Bend, Oreg.) surgically placed into the abdomen. At least 3 weeks are allowed for recovery.
Each rat is housed individually within a microisolator cage modified with an inserted polycarbonate filter-top riser to allow more vertical headroom. A flexible cable that minimally restricts movement is connected at one end to a commutator afixed to the cage top and at the other end to the animal's cranial implant. Each cage is located within separate, ventilated compartments of a stainless steel sleep-wake recording chamber. Food and water are available ad libitum and the ambient temperature is maintained at about 23±1° C. A 24-hr light-dark cycle (LD 12:12) using fluorescent light is maintained throughout the study. Relative humidity averages approximately 50%. Animals are undisturbed for at least 30 hrs before and after each treatment.
The vehicle (placebo, methylcellulose 15 centipoise 0.25% in water) or one of the test compound dose levels is administered orally at 1 mL/kg pseudo-randomly such that no rat receives the same treatment twice, and no rat receives more than two of the 8 treatments in any one study. Each rat is removed from its cage for about a minute to be weighed and treated. At least 6 days “washout” period precede and follow each treatment. […]

Plasma clearance, dog = type: in vivo; settings: male, Beagle, 1 mg/kg, intravenous, 1 mL/kg of 1.0 mg/mL
Procedure: Male Beagle dogs (body weight range 10-12 kg) are obtained from Marshall Bioresources, USA. Test compound is administered intravenously in solution (1 mL/kg) in 20% Captisol® in 22.5 mM phosphate buffer, pH 2, at a final drug concentration of 1.0 mg/mL (free base equivalents). Blood samples are obtained from the jugular vein over 24 hr. Samples of plasma are obtained by centrifugation and stored frozen (−20° C.) prior to analysis. Frozen plasma samples are thawed to room temperature for bioanalysis of concentrations of test compound. A related internal standard compound in acetonitrile/methanol (1:1, v/v) is added to all samples of plasma (1:1, v/v). The samples are centrifuged to remove precipitated protein prior to analysis. The supernatants are analysed by injection and rapid gradient elution on a Javelin Betasil C18 column (20×2.1 mm cartridge, Mobile phase A: Water/1 M NH4HCO3, 2000:10 v/v, Mobile Phase B: MeOH/1 M NH4HCO3, 2000:10 v/v). The eluted analytes are detected by LC-MS-MS analysis using a Sciex API 4000 triple quadrupole mass spectrometer. Concentrations of compound are determined from standards prepared and analysed under identical conditions. Clearance is calculated using non-compartmental analysis in Watson 7.4, Thermo Fisher Scientific, Inc.

[4] = threshold efficacy dose, 4 parameter logistic regression, 6 hr. after treatment, rat PO

T1 sequence (P35367 whole entry): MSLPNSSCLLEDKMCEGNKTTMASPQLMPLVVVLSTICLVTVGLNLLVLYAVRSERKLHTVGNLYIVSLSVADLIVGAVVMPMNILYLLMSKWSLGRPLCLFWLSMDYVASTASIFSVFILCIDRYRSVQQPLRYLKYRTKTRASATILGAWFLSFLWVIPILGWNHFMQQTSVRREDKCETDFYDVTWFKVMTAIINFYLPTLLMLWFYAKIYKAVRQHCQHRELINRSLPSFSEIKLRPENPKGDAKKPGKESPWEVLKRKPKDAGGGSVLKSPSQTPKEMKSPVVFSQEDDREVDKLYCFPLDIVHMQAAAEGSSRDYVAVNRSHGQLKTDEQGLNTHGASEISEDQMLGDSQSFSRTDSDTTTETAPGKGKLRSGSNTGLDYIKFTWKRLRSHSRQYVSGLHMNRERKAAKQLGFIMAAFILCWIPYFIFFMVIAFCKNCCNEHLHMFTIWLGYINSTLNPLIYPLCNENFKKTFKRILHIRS
Dopamine Transporter, sequence (Q01959 whole entry): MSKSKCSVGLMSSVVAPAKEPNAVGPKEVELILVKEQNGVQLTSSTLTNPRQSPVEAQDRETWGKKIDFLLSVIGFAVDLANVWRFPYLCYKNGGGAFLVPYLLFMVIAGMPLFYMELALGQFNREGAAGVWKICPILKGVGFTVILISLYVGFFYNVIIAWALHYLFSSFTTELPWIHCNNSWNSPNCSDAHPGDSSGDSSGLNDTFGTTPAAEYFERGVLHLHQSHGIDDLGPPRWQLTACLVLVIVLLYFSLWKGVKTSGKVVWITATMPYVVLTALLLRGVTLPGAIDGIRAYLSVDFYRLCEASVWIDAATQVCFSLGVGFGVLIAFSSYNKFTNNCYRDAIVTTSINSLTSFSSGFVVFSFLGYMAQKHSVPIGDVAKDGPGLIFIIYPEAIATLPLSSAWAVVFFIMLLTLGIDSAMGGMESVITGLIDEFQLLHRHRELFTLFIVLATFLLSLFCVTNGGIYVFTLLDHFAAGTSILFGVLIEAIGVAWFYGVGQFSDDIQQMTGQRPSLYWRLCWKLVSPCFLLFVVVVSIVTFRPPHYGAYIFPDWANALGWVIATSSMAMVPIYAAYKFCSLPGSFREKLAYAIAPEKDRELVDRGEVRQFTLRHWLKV

## Cc1ccc2c(c1)Oc1sc(C)cc1C(N1CCN(CC(C)(C)C(=O)O)CC1)=N2 [Example 2, 3-[4-(2,8-Dimethylthieno[2,3-b][1,5]benzoxazepin-4-yl)piperazin-1-yl]-2,2-dimethyl-propanoic acid dihydrochloride]
[1]
  Ki: 131 nM
Dopamine Transporter
  Ki: > 877 nM
Rats [2]
  NREM sleep on coadministration with citalopram: significantly increase NREM sleep at significantly lower doses
Rats [3]; 0.25 mg/kg and 0.025 mg/kg, rat
  apparent REM sleep inhibition, statistical significance: not statistically significant
Rats [3]; 3 mg/kg, rat
  REM sleep inhibition against the threshold value (−10 min.): exceeded the threshold value
  cumulative NREM sleep time (in words): significantly increase
  cumulative total sleep time (in words): significantly increase
  inhibition of locomotor intensity (LMI) (in words): without significant
  rebound insomnia (in words): without significant rebound insomnia
Rats [3]; rat sleep study
  REM sleep inhibition (overall conclusion, in words): cannot be ruled out
Rats [3]; rat, efficacy dose 0.26 mg/kg
  rebound insomnia or reduction in LMI within 10 times the most conservative efficacy dose: no undesired occurences of REM rebound insomnia, or reduction in LMI are observed
Rats [3]; [4]
  Estimated efficacy dose, NREM accumulation = 30 min.: 0.05 mg/kg
  Estimated efficacy dose, average sleep bout (1.5-fold increase): 0.21 mg/kg
  Estimated efficacy dose, longest sleep bout (1.75-fold increase): 0.26 mg/kg
  Estimated efficacy dose, total sleep accumulation = 25 min.: 0.07 mg/kg
Plasma clearance, dog
  clearance: 2.8 mL/min/kg
